Results on 18 compounds are retold here after patent US6063782A, “Pyrrolopyridazine derivatives” (Sankyo Company, Limited, priority 1994, dated 2000).

Counter-ions that a name gives are not always drawn.

For experiment [1], the target named is proton.potassium-adenosine triphosphatase (H+.K+-ATPase) (Sus scrofa, UniProt P19156). Briefly: Proton.potassium-adenosine triphosphatase (H+.K+-ATPase) inhibition test. The following applies: microsomal fraction of porcine gastric mucosa, pH=6.85, 37° C.; result given in words only. Type of experiment: biochemical. The method, then:
Proton.potassium-adenosine triphosphatase (H^+.K^+ -ATPase) activation test
According to the method reported by Sachs et al. [J. Biol. Chem., 251, 7690 (1976)], a microsomal fraction obtained from homogenized fresh porcine gastric mucosa by density gradient ultracentrifugation was used as the proton.potassium-adenosine triphosphatase preparation, 10 μl of a solution of a test compound in dimethylsulfoxide were added to 0.75 ml of 70 mM tris-HCl buffer solution (magnesium chloride 5 mM, potassium chloride 20 mM and pH=6.85) containing from 30 to 80 μg/ml (in terms of protein concentration) of the enzyme preparation and the mixture was incubated for 45 minutes at 37° C. with shaking at 200 times per minute. The enzyme reaction was initiated by adding 0.25 ml of 8 mM disodium adenosine triphosphate solution. After 20 minutes of the reaction time, the reaction was stopped by adding 1 ml of a 10k trichloroacetic acid-active carbon (100 mg) solution. The reaction solution was centrifuged (4° C., 3000 rpm, 15 minutes) and the inorganic phosphate in the supernatant prepared from adenosine triphosphate by hydrolysis was measured by colorimetry, according to the method of Yoda and Hokin [Biochem. Biophys. Res. Commun., 40, 880 (1970)]. In a similar manner, the amount of inorganic phosphate was measured in a reaction solution in the absence of potassium chloride. From the difference between the phosphate amounts in the presence and absence of potassium chloride, the proton-potassium-adenosine triphosphatase activity was calculated. Based on the activity value in the control and the values in the test compound at the various concentrations tested, the inhibiting rates (%) and then the 50? inhibiting concentrations (IC50) to proton.potassium-adenosine triphosphatase activity were obtained.

Experiment [2] relates to Helicobacter pylori strains 9470, 9472 and 9474. Nature of the experiment: Antibacterial activity against Helicobacter pylori. Type of experiment: cell-based. The settings on record: strains 9470, 9472 and 9474, 37° C., 3 days, slightly aerobic; result given in words only. The method, then: Antibacterial activity against Helicobacter pylori The antibacterial activity of the compounds of the present invention were evaluated by measuring the minimum inhibitory concentration values (MIC) of the present compounds against Helicobacter pylori strains 9470, 9472 and 9474. These strains of Helicobacter pylori were incubated for 4 days on a plate medium. The medium was prepared by dissolving brain heart infusion agar (Product of DIFCO) in a defined amount of distilled water, by sterilization in an autoclave, injecting horse blood (Product of Nihon Seibutsu Zairyo Co.) into each plate for the medium to contain 7% of the blood and by solidifying. Under slightly aerobic conditions, Helicobacter pylori cultivated at 37° C. for 4 days was suspended in a physiological saline solution for its inocular size to be about 10^8 CFU/ml. The suspension was diluted 100 times, and about 10 μl of the diluted suspension was inoculated on a medium for MIC determination. The medium for MIC determination used had the same compounds as those for preculture. […] In a similar way to the preculture, Helicobacter pylori was cultivated at 37° C. for 3 days under slightly aerobic conditions. […] The minimum concentration which gave no bacterial growth was regarded as MIC of the compound of the present invention.

The next experiment concerns gastric acid secretion. Nature of the experiment: Gastric acid secretion activity test using pyloric ligation in rats (Shay rat method). Type of experiment: in vivo. The settings on record: male SD rats, 20 mg/kg injected into the duodenal region, 4 hours, result given in words only. The method, then:
Gastric acid secretion activity test using pyloric ligation in rats (Shay rat method)
Pyloric ligation was conducted based on the method of Shay et al. [Gastroenterology, 5, 43 (1945)]. Male rats of SD strain were fasted for 24 hours; their abdomens were sectioned during anesthesia under ether. The duodenal and pyloric regions were exposed and the latter was ligated. A solution of a test compound (10 mg/ml) prepared by use of 1.5w parts of dimethylacetamide, 68.5% parts of polyethyleneglycol (PEG-400) and 30% parts of physiological saline solution, was injected into the duodenal region for the dose to be 20 mg/kg by use of a 1-ml syringe and an injection needle (26G). After injection of the test compound, the abdominal region was sutured. The animals were allowed to a stand for 4 hours without feeding food and water and then sacrified with carbon dioxide gas. The stomach was excised and gastric juice was gathered. The gastric juice sample was centrifuged (4° C., 2500 rpm, 15 minutes). The amount of the supernatant was measured to be as the gastric secretion. The acidity of the gastric juice was determined by the amount (ml) of 0.01 N sodium hydroxide solution required for titration of 0.1 ml of the supernatant to pH 7.0 by use of-an auto-titrating apparatus. The value of gastric acid secretion was calculated from the value of gastric secretion and the acidity of gastric juice. The inhibiting rate was obtained from the values of gastric acid secretion of the control group and of the administered group.

Chain of proton.potassium-adenosine triphosphatase (H+.K+-ATPase) (P19156 whole entry): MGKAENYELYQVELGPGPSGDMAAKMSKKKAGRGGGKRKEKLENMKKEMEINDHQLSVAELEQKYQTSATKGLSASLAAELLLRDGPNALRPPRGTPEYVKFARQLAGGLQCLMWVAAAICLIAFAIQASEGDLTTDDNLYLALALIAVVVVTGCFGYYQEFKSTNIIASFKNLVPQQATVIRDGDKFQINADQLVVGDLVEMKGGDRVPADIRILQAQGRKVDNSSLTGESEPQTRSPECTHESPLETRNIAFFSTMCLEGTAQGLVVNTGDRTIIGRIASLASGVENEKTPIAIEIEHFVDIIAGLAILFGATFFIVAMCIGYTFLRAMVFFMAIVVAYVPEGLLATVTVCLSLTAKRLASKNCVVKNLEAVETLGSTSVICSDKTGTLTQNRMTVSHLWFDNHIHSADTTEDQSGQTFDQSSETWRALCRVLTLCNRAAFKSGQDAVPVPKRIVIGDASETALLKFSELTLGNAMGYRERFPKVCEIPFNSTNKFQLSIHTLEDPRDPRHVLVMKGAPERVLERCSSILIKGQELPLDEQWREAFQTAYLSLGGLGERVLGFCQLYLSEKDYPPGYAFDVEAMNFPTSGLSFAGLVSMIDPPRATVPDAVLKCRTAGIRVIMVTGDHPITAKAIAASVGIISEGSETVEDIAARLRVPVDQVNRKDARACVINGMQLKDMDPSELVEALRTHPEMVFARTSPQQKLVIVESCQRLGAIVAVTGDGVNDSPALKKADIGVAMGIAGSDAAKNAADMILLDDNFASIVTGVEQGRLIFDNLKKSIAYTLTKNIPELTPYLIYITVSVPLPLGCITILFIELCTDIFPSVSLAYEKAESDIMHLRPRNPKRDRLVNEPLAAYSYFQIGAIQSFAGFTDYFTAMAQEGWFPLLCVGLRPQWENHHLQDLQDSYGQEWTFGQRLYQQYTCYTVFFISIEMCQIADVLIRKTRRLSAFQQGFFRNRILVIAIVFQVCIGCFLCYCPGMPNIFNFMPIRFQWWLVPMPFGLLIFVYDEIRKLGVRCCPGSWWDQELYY
Chain of proton.potassium-adenosine triphosphatase (H+.K+-ATPase) (P18434 whole entry partner): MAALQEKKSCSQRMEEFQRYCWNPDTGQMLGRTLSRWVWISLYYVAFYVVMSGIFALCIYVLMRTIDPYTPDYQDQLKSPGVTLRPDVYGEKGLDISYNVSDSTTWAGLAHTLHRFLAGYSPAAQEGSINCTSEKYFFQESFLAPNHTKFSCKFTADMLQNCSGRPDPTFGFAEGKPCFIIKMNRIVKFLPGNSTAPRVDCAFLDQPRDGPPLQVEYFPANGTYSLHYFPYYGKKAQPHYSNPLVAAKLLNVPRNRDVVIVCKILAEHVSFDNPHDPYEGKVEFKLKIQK

As for `Cc1c(C)n(C[C@@H]2C[C@H]2C)c2c(OCc3ccc(F)cc3)nncc12` (relative stereo) [Example 57, 7-(4-Fluorobenzyloxy)-2,3-dimethyl-1-(2-methylcyclopropylmethyl)pyrrolo[2,3-d]pyridazine], in experiment [1], the “inhibiting concentrations (IC50) to proton.potassium-adenosine triphosphatase activity” value (from here on “inhibiting concentrations (IC50)”) is listed as “excellent activity”. For the same compound, the “minimum inhibitory concentration (MIC) against Helicobacter pylori” value (from here on “minimum inhibitory concentration (MIC)”) in experiment [2] is given as “excellent antibacterial activity”. The “inhibiting rate of gastric acid secretion” value (“inhibiting rate” below) in the experiment with gastric acid secretion is “excellent activity”.
For the compound `Cc1c(C)n(C[C@@H]2C[C@H]2C)c2c(OCc3ccc(F)cc3F)nncc12` (relative stereo) [Example 58, 7-(2,4-Difluorobenzyloxy)-2,3-dimethyl-1-(2-methylcyclopropylmethyl)pyrrolo[2,3-d]pyridazine], the “inhibiting concentrations (IC50)” value in experiment [1] was “excellent activity”. For the same compound, the “minimum inhibitory concentration (MIC)” value in experiment [2] is recorded as “excellent antibacterial activity”. Also, the “inhibiting rate” value in the experiment on gastric acid secretion is recorded as “excellent activity”.
For `CC=CCn1c(C)c(C)c2cnnc(OCc3ccc(F)cc3)c21` [Example 1, 1-(2-Butenyl)-7-(4-fluorobenzyloxy)-2,3-dimethylpyrrolo[2,3-d]pyridazine], the “inhibiting concentrations (IC50)” value in experiment [1] is recorded as “excellent activity”. Further, the “minimum inhibitory concentration (MIC)” value in experiment [2] is “excellent antibacterial activity”. In the experiment with gastric acid secretion, the “inhibiting rate” value is given as “excellent activity”.
Take `Cc1c(C)n(CC2CC2)c2c(OCc3ccccc3)nncc12` [Example 4, 7-Benzyloxy-1-cyclopropylmethyl-2,3-dimethylpyrrolo[2,3-d]pyridazine]: in experiment [1], the “inhibiting concentrations (IC50)” value is listed as “excellent activity”. The “minimum inhibitory concentration (MIC)” value in experiment [2] was “excellent antibacterial activity”.
As to `CC=CCn1c(C)c(C)c2cnnc(OCc3ccccc3)c21` [Example 5, 7-Benzyloxy-1-(2-butenyl)-2,3-dimethylpyrrolo[2,3-d]pyridazine], the “minimum inhibitory concentration (MIC)” value in experiment [2] is recorded as “excellent antibacterial activity”. Besides, the “inhibiting rate” value in the experiment with gastric acid secretion was “excellent activity”.
In the case of `C=CCn1c(C)c(C)c2cnnc(OCc3ccc(F)cc3)c21` [Example 7, 7-(4-Fluorobenzyloxy)-2,3-dimethyl-1-(2-propenyl)pyrrolo[2,3-d]pyridazine], the “inhibiting concentrations (IC50)” value in experiment [1] is on record as “excellent activity”. In experiment [2], the “minimum inhibitory concentration (MIC)” value is “excellent antibacterial activity”. The “inhibiting rate” value in the experiment on gastric acid secretion is “excellent activity”.
Consider `C=CCn1c(C)c(C)c2cnnc(OCc3ccc(F)cc3F)c21` [Example 9, 7-(2,4-Difluorobenzyloxy)-2,3-dimethyl-1-(2-propenyl)pyrrolo[2,3-d]pyridazine], for which the “inhibiting concentrations (IC50)” value in experiment [1] is “excellent activity”. In addition, the “minimum inhibitory concentration (MIC)” value in experiment [2] is reported as “excellent antibacterial activity”. Also, the “inhibiting rate” value in the experiment on gastric acid secretion is “excellent activity”.
With `CC/C=C/Cn1c(C)c(C)c2cnnc(OCc3ccccc3)c21` [Example 11, 7-Benzyloxy-2,3-dimethyl-1-(2-pentenyl)pyrrolo[2,3-d]pyridazine], in experiment [2], the “minimum inhibitory concentration (MIC)” value is recorded as “excellent antibacterial activity”. For the same compound, the “inhibiting rate” value in the experiment on gastric acid secretion is on record as “excellent activity”.
Take `C=CCn1c(C)c(C)c2cnnc(OCc3ccc(Cl)cc3)c21` [Example 12, 7-(4-Chlorobenzyloxy)-2,3-dimethyl-1-(2-propenyl)povrrolo[2,3-d]pyridazine]: the “minimum inhibitory concentration (MIC)” value in experiment [2] is recorded as “excellent antibacterial activity”. In addition, the “inhibiting rate” value in the experiment with gastric acid secretion is on record as “excellent activity”.
Taken in the same sequence, the figures for `C=C(C)Cn1c(C)c(C)c2cnnc(OCc3ccccc3)c21` [Example 14, 7-Benzyloxy-2,3-dimethyl-1-(2-methyl-2-propenyl)-ovrrolo[2,3-d]pyridazine] were “excellent antibacterial activity” and “excellent activity”.
For the compound `Cc1c(C)n(C2CC2)c2c(OCc3ccccc3)nncc12` [Example 16, 7-Benzyloxy-1-cyclopropyl-2,3-dimethylpyrrolo[2,3-d]pyridazine], the “minimum inhibitory concentration (MIC)” value in experiment [2] is recorded as “excellent antibacterial activity”. In addition, the “inhibiting rate” value with gastric acid secretion is “excellent activity”.
As to `C=CCn1c(C)c(C)c2cnnc(OCc3ccc(Cl)cc3Cl)c21` [Example 17, 7-(2,4-Dichlorobenzyloxy)-2,3-dimethyl-1-(2-propenyl)pyrrolo[2,3-d]pyridazine], in experiment [1], the “inhibiting concentrations (IC50)” value is listed as “excellent activity”. Also, in experiment [2], the “minimum inhibitory concentration (MIC)” value is recorded as “excellent antibacterial activity”. Also, the “inhibiting rate” value in the experiment on gastric acid secretion is “excellent activity”.
Consider `CC=CCn1c(C)c(C)c2cnnc(OCc3ccc(Cl)cc3Cl)c21` [Example 21, 1-(2-Butenyl)-7-(2,4-dichlorobenzyloxy)-2,3-dimethylpyrrolo[2,3-d]pyridazine], for which the “inhibiting concentrations (IC50)” value in experiment [1] was “excellent activity”. In experiment [2], the “minimum inhibitory concentration (MIC)” value was “excellent antibacterial activity”.
Take `Cc1c(C)n(CC2CC2)c2c(OCc3ccc(F)cc3)nncc12` [Example 35, 1-Cyclopropylmethyl-7-(4-fluorobenzyloxy)-2,3-dimethylpyrrolo[2,3-d]pyridazine]: in experiment [1], the “inhibiting concentrations (IC50)” value was “excellent activity”. Further, in the experiment on gastric acid secretion, the “inhibiting rate” value was “excellent activity”.
Consider `CC=CCn1c(C)c(C)c2cnnc(OCc3c(Cl)cccc3Cl)c21` [Example 49, 1-(2-Butenyl)-7-(2,6-dichlorobenzyloxy)-2,3-dimethylpyrrolo[2,3-d]pyridazine], for which the “inhibiting concentrations (IC50)” value in experiment [1] was “excellent activity”. Besides, the “minimum inhibitory concentration (MIC)” value in experiment [2] is reported as “excellent antibacterial activity”.
As for `C/C=C/Cn1c(C)c(C)c2cnnc(OCc3ccc(F)cc3)c21` [Example 74, 1-(2-Butenyl)-7-(4-fluorobenzyloxy)-2,3-dimethylpyrrolo[2,3-d]pyridazine hydrochloride], in experiment [1], the “inhibiting concentrations (IC50)” value is “excellent activity”.
Take `CC=CCn1c(C)c(C)c2c[n+]([O-])nc(OCc3ccc(F)cc3)c21` [Example 75, 1-(2-Butenyl)-7-(4-fluorobenzyloxy)-2,3-dimethylpyrrolo[2,3-d]pyridazine-5-oxide]: the “inhibiting concentrations (IC50)” value in experiment [1] is reported as “excellent activity”. Also, the “minimum inhibitory concentration (MIC)” value in experiment [2] was “excellent antibacterial activity”.
Taken in the same sequence, the figures for `CC=CCn1c(C)c(C)c2c[n+]([O-])nc(OCc3ccc(F)cc3F)c21` [Example 76, 1-(2-Butenyl)--7-(2,4-difluorobenzyloxy)-2,3-dimethylpyrrolo[2,3-d]pyridazine-5-oxide] were “excellent activity” and “excellent antibacterial activity”.
